The results in this text go back to the METLIN SMRT retention time set (Domingo-Almenara et al. 2019).

SMILES strings stand for the structures.

The nature of the data set: gradient 5% acetonitrile 3 min, to 50% in 2 min, to 85% in 15 min, held 3 min, 100 µL/min. The settings on record: column: Zorbax Extend-C18 2.1 x 50 mm; eluents: water / acetonitrile, 0.1% formic acid. The method in brief:
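In both positive and negative ionization mode, a quadrupole time-of-flight mass spectrometer coupled to HPLC analyzed pure standards run in mixtures of ~100 molecules. The Zorbax Extend-C18 column (2.1 × 50 mm, 1.8 μm) was operated at 100 μL/min with water and acetonitrile, each containing 0.1% formic acid. The dead volume was 40 μL and the dwell volume 900 μL. Retention time came from adduct peaks that were computationally picked and individually inspected by hand.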
In turn, `CCCS(=O)(=O)c1nc2ccc(NS(=O)(=O)c3ccc(F)cc3Cl)cc2s1` displayed an RP-LC retention time of 973 s.
As for `COc1ccc(S(=O)(=O)N2CCC(C(=O)NCCc3csc(-c4cccs4)n3)CC2)cc1`, the RP-LC retention time stood at 863 s.
Consider `O=C(COc1ccc(F)cc1)Nc1cc(F)c2nc(N3CCOCC3)ccc2c1`, for which the RP-LC retention time was 882 s.
`Cc1ccc(NC(=O)N2CCC(n3c(-c4ccoc4)nc4cccnc43)C2)cc1` (stereo unspecified) gave an RP-LC retention time of 740 s.
For the compound `CCCCN(C)c1ccc(NC(=O)c2cccs2)cc1C(=O)O`, the RP-LC retention time was determined as 623 s.
`CNC(=O)C(=O)Nc1ccc(N(C)C)cc1` showed an RP-LC retention time of 486 s.
For `CC(C)OCCCNC(=O)C1CCN(c2ncnc3c2oc2ccccc23)CC1`, the RP-LC retention time amounted to 662 s.
The compound `O=C(c1cncc(Br)c1)N1CCC(OCC2CC2)C1` (stereo unspecified) gave an RP-LC retention time of 730 s.
As to `O=C1NCCCn2cc(S(=O)(=O)Nc3cccc(F)c3)cc21`, the RP-LC retention time stood at 663 s.
For `COc1cccc(-c2noc(-c3nc(-c4ccc5c(c4)OCO5)no3)n2)c1OC`, the RP-LC retention time stood at 1150 s.
In the case of `COc1ccccc1OCCN1C(=O)C2(CCOCC2)CC1c1nnnn1C(C)(C)C` (stereo unspecified), the RP-LC retention time was determined as 796 s.
The result for `Cc1cccc(C2CN(C)CCc3c2cc(O)c(O)c3Cl)c1` (stereo unspecified) reads 648 s; that for `CN(C)[C@@H]1CN(C(=O)c2ccsc2)CC[C@]1(O)c1ccccc1`, 576 s.
Take `COc1cc(OC)cc(-c2noc(CCn3nc(-c4cccc(Cl)c4)ccc3=O)n2)c1`: the RP-LC retention time worked out at 1040 s.
The result for `CCCCN(C)C(=O)C1CCN(c2cn[nH]c(=O)c2)CC1` reads 640 s; that for `Cc1ccc(-c2[nH]ncc2CN)cc1C`, 586 s; that for `Cc1cccc(NC(=O)Nc2cnc3c(c2)CCC3)c1`, 578 s.
The result for `O=c1c2sccc2n(Cc2nc(-c3ccc(Cl)c(F)c3)no2)c(=O)n1Cc1ccccc1` reads 1210 s; that for `CS(=O)(=O)N1CCCC(C(=O)Nc2nccs2)C1` (stereo unspecified), 627 s; that for `CCC(=O)N1CCN(c2ccc(=O)n(-c3ccc(C(C)C)cc3)n2)CC1`, 780 s.
The same measure for `CC(C)COc1cc(=O)n2c(c1C(=O)NCC1CCCCC1)CCCCC2`: 864 s; for `CN(C)c1ccc2c(c1)CN(C(=O)C1CC1)CCO2`: 574 s; for `CCCN1C(=O)C(CC(=O)NCC2CCCO2)Sc2ncccc21` (stereo unspecified): 663 s.
As for `CCCc1noc(-c2cccnc2N2CCCN(Cc3ccccc3Cl)CC2)n1`, the RP-LC retention time was determined as 737 s.
Compound `COc1ccc(NC(=O)COc2cc(C)nc(N3CCCC3)n2)cc1Cl` returned an RP-LC retention time of 653 s.
Turning to `Cc1cccc(NS(=O)(=O)c2cc(-c3[nH]ncc3C(=O)N3CCCCC3)oc2C)c1C`, the RP-LC retention time stood at 822 s.
The compound `Cc1ccc(-n2nccn2)c(C(=O)N2CCN(c3nc4cc(Cl)ccc4o3)CC[C@H]2C)c1` registered an RP-LC retention time of 1080 s.
`CCC(CC)C(=O)NCC(c1ccc(Br)cc1)c1c[nH]c2ccccc12` (stereo unspecified) showed an RP-LC retention time of 945 s.
In the case of `CCOc1ccc2ncc(C(=O)c3ccccc3)c(N3CCN(CC)CC3)c2c1`, the RP-LC retention time came out at 591 s.
`CCOc1ccc(-n2c(=O)c3sccc3n(Cc3nc(-c4ccccc4C)no3)c2=O)cc1`: the RP-LC retention time came out at 1070 s.
As to `Cc1ccccc1NC(=O)C1CCN(c2nc(C3CCC3)nc3csc(C)c23)CC1`, the RP-LC retention time was determined as 757 s.
In turn, `Nc1nc(-c2ccccc2)nn1C(=O)c1ccccc1F` yielded an RP-LC retention time of 862 s.
Turning to `Cc1nn(C)cc1S(=O)(=O)N1CCN(C(=O)c2ccco2)CC1`, the RP-LC retention time turned out to be 626 s.
The result for `O=C(Nc1cc(F)ccc1F)N1CCN(Cc2nc3cccnc3n2-c2ccccc2)CC1` reads 676 s; that for `CC(=O)N1CCc2ccccc2C1C(=O)NCc1ccc(C(F)(F)F)cc1` (stereo unspecified), 838 s.
The compound `O=c1c(=O)n(-c2ccccc2)ccn1Cc1nc(-c2ccccc2)no1` returned an RP-LC retention time of 777 s.
On to `O=C(CN1C(=O)C2CCCCN2c2ccc(C(=O)N3CCCC3)cc21)NCC1COCCO1` (stereo unspecified), for which the RP-LC retention time was 627 s.
`Cn1cnc2c(C(=O)N3CCOCC3)nn(-c3ccc(Cl)cc3)c2c1=O` gave an RP-LC retention time of 690 s.
Regarding `CCCS(=O)(=O)NCCn1c(C)cnc1-c1ccccc1`, the RP-LC retention time is 566 s.
As for `Cc1ccccc1Nc1c(-c2ccccc2)nc2ccc(Br)cn12`, the RP-LC retention time stood at 799 s.
Regarding `CCCCOc1ccc(-c2csc(Nc3ccccc3)n2)cc1`, the RP-LC retention time is 1400 s.
`O=C(Nc1ccc(Br)cc1)C1CCCN(c2nccnc2Sc2ccccc2)C1` (stereo unspecified) showed an RP-LC retention time of 1220 s.
As for `NC(CO)(CO)CCc1ccc(Sc2cccc(OCc3ccccc3)c2)cc1Cl`, the RP-LC retention time worked out at 837 s.
Take `COc1ccc(NC(=O)N2CCCC2c2nc(-c3ccc(F)cc3F)no2)cc1F` (stereo unspecified): the RP-LC retention time was found to be 940 s.
As for `Cn1cc(S(=O)(=O)N2CCC(C(=O)NCc3ccc(Cl)cc3)CC2)cc1C(=O)N1CCCC1`, the RP-LC retention time amounted to 772 s.
On to `Cc1cc(F)ccc1NC(=O)c1c(O)c2cccnc2n(-c2ccccc2)c1=O`, for which the RP-LC retention time is 1280 s.
With `Cc1ccc(CNC(=O)CCc2conc2-c2ccccc2)o1`, the RP-LC retention time is 865 s.
`COc1ccccc1-c1nnc(C2CCN(S(=O)(=O)c3c(C)cc(C)cc3C)CC2)o1` came in with an RP-LC retention time of 1030 s.
For the compound `CN1CCCc2cc(C(=O)NCc3cccnc3)sc21`, the RP-LC retention time was 592 s.
Take `O=C(Nc1ccc(Br)cc1)Nc1c(-c2ccncc2)nc2ccccn12`: the RP-LC retention time turned out to be 641 s.
For the compound `O=C(Nc1nnc(SCc2nnc(-c3ccccc3)o2)s1)c1cccc(Cl)c1`, the RP-LC retention time was determined as 977 s.
The compound `Cc1noc(-c2ccc(NC(=O)c3cc(-c4ccco4)on3)cc2)n1` registered an RP-LC retention time of 902 s.
In turn, `CCN1c2ccccc2C(=O)NC12CCN(C(=O)NCc1cccc(F)c1)CC2` showed an RP-LC retention time of 740 s.
The same measure for `CC(CCNC(=O)c1cc2c(-c3cccs3)nn(-c3ccccc3)c2n1C)N1CCCC1` (stereo unspecified): 726 s.
`CCc1cccc(NC(=O)N2CCCC2c2nc(-c3ccccc3OC)no2)c1` (stereo unspecified) yielded an RP-LC retention time of 970 s.
With `CN(C)c1ccc(-c2nc(-c3cn(-c4ccc(F)cc4)nn3)no2)cc1`, the RP-LC retention time worked out at 1060 s.
For the compound `CCOCCCNC(=O)c1c(-c2cccc(Br)c2)noc1C`, the RP-LC retention time amounted to 869 s.
As for `COc1ccc(-n2ccnc(NC(=O)Nc3ccc(F)cc3)c2=O)cc1OC`, the RP-LC retention time came to 848 s.
In the case of `COC(=O)c1cccc(NC(=O)C2CCc3nc(N4CCOCC4)ncc3C2)c1` (stereo unspecified), the RP-LC retention time came out at 746 s.
Turning to `COc1ccc(-c2noc(C3CCCN3C(=O)Cc3ccsc3)n2)cc1` (stereo unspecified), the RP-LC retention time amounted to 928 s.
Take `Cc1ccc(NC(=O)C2CCc3nc(N4CCOCC4)ncc3C2)cc1F` (stereo unspecified): the RP-LC retention time was 735 s.
`Cn1c(=O)n(C)c2cc(S(=O)(=O)C3CCCCC3)c(NC(=O)c3ccccc3)cc21` gave an RP-LC retention time of 982 s.
Consider `CN(Cc1ccccc1)C(=O)C1c2ccccc2C(=O)N(C)C1c1cccs1` (stereo unspecified), for which the RP-LC retention time was found to be 877 s.
`CC1=C(c2ccc(C)cc2)S(=O)(=O)N=C1N1CCCN(C(=O)C2CCCC2)CC1` showed an RP-LC retention time of 872 s.
On to `CCCn1cc(C(=O)NCCCOCC)c(S(=O)(=O)N2CCN(c3ccc(Cl)cc3)CC2)n1`, for which the RP-LC retention time is 1080 s.
Turning to `O=S(=O)(c1ccc(F)cc1)N1CCC(c2noc(C3CC3)n2)C1` (stereo unspecified), the RP-LC retention time amounted to 885 s.
On to `Cc1ccn(-c2ccc(C(=O)NC3CCCCC3)cn2)n1`, for which the RP-LC retention time worked out at 885 s.
Compound `CC1CCN(c2nc(C(=O)N3CCN(C(C)C)CC3)nc3c2cnn3C)CC1` displayed an RP-LC retention time of 604 s.
`COCCn1c(CCCC(=O)NC2CCCCCC2)nc2cccnc21` came in with an RP-LC retention time of 667 s.
In turn, `CCC(C)Sc1nnc(NC(=O)C2CCN(C(=O)c3ccccc3F)CC2)s1` (stereo unspecified) came in with an RP-LC retention time of 871 s.
On to `CN(CCC#N)c1ccc(NC(=O)c2ccc(Br)cc2)cc1C(=O)O`, for which the RP-LC retention time came out at 740 s.
The same measure for `CCC(C(=O)N1CCN(c2ccccn2)CC1)n1nc(C)c2nn(-c3ccccc3)c(C)c2c1=O` (stereo unspecified): 669 s; for `Cc1nc(CC(=O)Nc2nc(-c3ccc(-c4ccccc4)cc3)cs2)cs1`: 1160 s.
On to `C[C@H](NC(=O)Cc1cc(F)cc(F)c1)C(=O)N[C@H](C(=O)OC(C)(C)C)c1ccccc1`, for which the RP-LC retention time was found to be 944 s.
The compound `Cc1ccc(NC(=O)N2CCCC(Cn3cnc4cccnc43)C2)cc1F` (stereo unspecified) displayed an RP-LC retention time of 718 s.
In the case of `CCc1ccc(NC(=O)N2CCC(c3nc(C(=O)N4CCCC4)c(C)o3)CC2)cc1`, the RP-LC retention time is 870 s.
`O=C(c1nc(CS(=O)(=O)c2ccccc2)no1)N1CCN(c2ccccn2)CC1` returned an RP-LC retention time of 616 s.
`CCC(C)NC(=O)CCCn1c(=O)c2cccn2c2ccccc21` (stereo unspecified): the RP-LC retention time worked out at 760 s.
Compound `COc1ccccc1N1CCN(c2cc(SCC(=O)Nc3ccc(Cl)cc3F)ncn2)CC1` gave an RP-LC retention time of 1260 s.
On to `O=C(C1CCC1)N1CCCC(Cc2nncn2CC2CC2)C1` (stereo unspecified), for which the RP-LC retention time came to 596 s.
`O=C(Cc1ccccc1)NCc1nc(-c2ccc(-c3csc(C4CC4)n3)cc2)no1`: the RP-LC retention time was 1040 s.
